Measured values taken from patent US20240189385A1, “KEAP1/NRF2 PROTEIN-LIKE POLYMERS” (Northwestern University, priority 2021, published 2024).
Ends that are not written are not given here.

tested on: Antioxidant Response Element (ARE), Nrf2 antioxidant pathway; assay: Antioxidant Response Element (ARE) luciferase reporter assay; format: cell-based; conditions: 0 μM to 50 μM with respect to peptide; 24 hours; FIGS. 38A, 38B
Description: The Antioxidant Response Element (ARE) Luciferase Reporter HepG2 Cell line was used to probe Nrf2 antioxidant pathway activation. ARE-HepG2 cells were cultured in growth media (BPS bioscience) according to manufacturer's recommendations. […] PLPs and peptides were tested at concentrations ranging from 0 μM to 50 μM with respect to peptide along with controls (untreated and tBHQ positive control at 100 μM) in triplicate. Cells were incubated for 24 hours post-treatment. ONE-step luciferase assay reagent was added at 100 μL/well, followed by rocking at room temperature for 15 min. Luminescence was assessed using a Biotek SynergyNeo2 plate reader. Background luminescence of cell free controls wells was subtracted from test wells. ARE activation was reported as luminescence relative to the average of the untreated controls wells.

Compound	ARE activation
Full Scramble PLP: full scramble polynorbornene dicarboxyimide-based brush polymer comprising SEQ ID NO: 143 (DERLERPLTRGFR) peptide monomer, Example 13 (also: part of polynorbornene dicarboxyimide-based brush polymer) [reference compound]	did not activate ARE
ScrambleR PLP: scrambleRRRR polynorbornene dicarboxyimide-based brush polymer comprising SEQ ID NO: 146 (DELEPLTGFRRRR) peptide monomer, Example 14 (also: part of polynorbornene dicarboxyimide-based brush polymer) [reference compound]	did not activate ARE
CC(C)C[C@H](NC(=O)[C@H](Cc1ccccc1)NC(=O)[C@H](CCC(=O)O)NC(=O)CNC(=O)[C@@H](NC(=O)[C@H](CCC(=O)O)NC(=O)[C@@H]1CCCN1C(=O)[C@H](CC(=O)O)NC(=O)[C@@H](N)CC(C)C)[C@@H](C)O)C(=O)N[C@@H](CCCNC(=N)N)C(=O)N[C@@H](CCCNC(=N)N)C(=O)N[C@@H](CCCNC(=N)N)C(=O)N[C@@H](CCCNC(=N)N)C(N)=O [SEQ ID NO: 72]	did not activate ARE
